Reference: patent US20230410977A1, “METHODS AND MATERIALS FOR ASSESSING RADIATION EXPOSURE” (NUtech Ventures, priority 2020, published 2023)

How the values were obtained:
[1] = tested on: mice exposed to 9.6 Gy 60Co-γ-radiation; experiment: Thirty-day survival of mice given amifostine before 9.6 Gy 60Co-γ-radiation (cohort 3); format: in vivo, mouse
Experimental: (§1) Cohort three comprised whole blood samples from mice exposed to a single dose of 9.6 Gy ^60Co-γ-radiation at a rate of 0.6 Gy/minute in the presence or absence of drug intervention (50 mg/kg or 200 mg/kg amifostine). A total of 300 blood samples were collected from 60 mice divided into five groups (12 mice per group). The five groups correspond to: (1) amifostine dosage of 50 mg/kg without radiation exposure, (2) amifostine dosage of 200 mg/kg without radiation exposure, (3) amifostine dosage of 50 mg/kg with radiation exposure, (4) amifostine dosage of 200 mg/kg with radiation exposure, and (5) a radiation exposure without an amifostine treatment. Blood samples were collected at five time-points: at day −5 (D−5), at time of amifostine dosage, day −1 (D−1), day 1 (D1), day 5 (D5) and day 9 (D9). Amifostine was delivered through a subcutaneous injection.
Lastly, to evaluate the radioprotective impact of amifostine treatment, cohort three also contained mice that received a subcutaneous injection of either 50 mg/kg or 200 mg/kg of amifostine 30 minutes (+10 minutes) before exposure to radiation. A total of 300 samples were collected from 60 mice divided into five groups (n=12): (1) 50 mg/kg amifostine treatment without radiation exposure (Am50), (2) 200 mg/kg amifostine treatment without radiation exposure (Am200), (3) only 9.6 Gy radiation exposure (RAD), (4) 9.6 Gy radiation exposure with a 50 mg/kg amifostine treatment (RAD+Am50), and (5) 9.6 Gy radiation exposure with a 200 mg/kg amifostine treatment (RAD+Am200). Serum samples were collected from each group at five different time points. Serum collected at five days and one day prior to radiation exposure were used as controls, and serum samples for metabolomics analysis were collected at 1, 5 and 9 days post-irradiation (Table 1).
Furthermore, an incremental decrease in survival began at day 11.

[2] = tested on: mouse whole blood metabolome; experiment: Combined NMR and LC-MS metabolomics of mouse whole blood, metabolic time trajectories (cohort 3); format: in vivo; settings: for NMR metabolic time trajectory of whole blood after radiation: PLS Q2 against D−5 baseline
Experimental: as §1
Mouse (n=236) and NHP (n=70) serum samples, and mouse blood samples (n=300) were simultaneously prepared for LC-MS and NMR analysis as shown in FIG. 1C. 2.0% by volume of NaN3 was added to each serum or blood sample to avoid bacterial growth. The protein component was precipitated by adding 100 μL (2×) of methanol to 50 μL of serum or blood. Deoxygenated methanol was used for the blood preparation to avoid unnecessary oxidation of the red blood cells. Methanol was purged of oxygen by bubbling in nitrogen gas for 30 minutes.
The 1:2 mixtures were then vortexed for 10 seconds. Serum samples were incubated at room temperature for 5 minutes. Blood samples were sonicated in a water bath for 10 minutes at 4° C., followed by incubation at −20° C. for 20 minutes. The samples were then centrifuged at 15,000×g for 20 minutes at 4° C. to pellet the proteins. The supernatant was collected, transferred to an Eppendorf tube, and centrifuged again at 15,000×g for 5 minutes at 4° C. The supernatant was then divided 20% and 80% for LC-MS and NMR samples, respectively. Samples were snap-frozen in liquid nitrogen. Methanol was evaporated by speed vacuum centrifugation (SpeedVac R Plus, Savant) and water was removed by lyophilization using FreeZone™ (Labconco, Kansas City, MO).
Dried serum or blood samples were reconstituted using 50 μL of 50 mM phosphate buffer in 100% D20 at pH 7.2 (uncorrected) with 50 μM TMSP as an NMR chemical shift reference and internal standard. The samples were centrifuged at 15,000×g for 20 minutes at 4° C. to remove any particulates, and the supernatant was transferred to 1.7 mm NMR tube for data acquisition. All NMR experiments were collected at 298K with a Bruker AVANCE III HD 700 MHz spectrometer equipped with a 5 mm quadruple resonance QCI-P cryoprobe (^1H, ^13C, ^15N and ^31P) with z-axis gradients. A SampleJet automated sample changer with Bruker ICON-NMR software was used to collect all data. […]

Compound: NCCCNCCSP(=O)(O)O [amifostine, 2-(3-aminpropyl) aminoethylphosphorothioate]
- survival at 30 days post-irradiation ([1]; amifostine 50 mg/kg subcutaneous, 30 minutes before 9.6 Gy, untreated irradiated animals 100% died): 40%
- day at which incremental decrease in survival began ([1]; amifostine 50 mg/kg, 9.6 Gy): 11 days
- animal survival 30 days post-irradiation ([1]; amifostine 200 mg/kg subcutaneous, 30 minutes prior to 9.6 Gy, untreated irradiated animals 100% died): 100%
- NMR metabolic time trajectory of whole blood after radiation ([2]; amifostine 50 mg/kg, 9.6 Gy): could not be discriminated from untreated controls
- NMR metabolic time trajectory of whole blood after radiation ([2]; amifostine 200 mg/kg, 9.6 Gy, p=1.60×10^−7): reversed progression back towards the baseline norm (D−5) by D9
- recovery of dysregulated metabolic pathways ([2]; amifostine 200 mg/kg, between D5 and D9 after radiation exposure): recovery of pathways including lipid metabolism, glycolysis, and TCA activity as well as energy and amino acid metabolism
- LC-MS metabolic time trajectory of whole blood after radiation ([2]; amifostine treatment, 9.6 Gy, p=2.10×10^−2): divergence of trajectories from D5 to D9
